Laboratory results taken from patent US12240857B2 (priority 2017, dated 2025).
Structures can show the parent of a compound that is named as a salt. Where two headings read alike, the source gives them in different places.

How the values were obtained:
[1] = system: BDBV mucin-domain-deleted glycoprotein pseudotyped VSV; assay: microbe, parasite or virus in culture; type: cell-based, Bundibugyo ebolavirus; conditions: Vesicular stomatitis virus, Vero, read-out: EC50 BDBV
[2] = system: EBOV mucin-domain-deleted glycoprotein pseudotyped VSV; assay: microbe, parasite or virus in culture; type: cell-based, Zaire ebolavirus; conditions: Zaire ebolavirus, Vero, read-out: EC50 EBOV

Compound `CC(NC(=O)C1CCCN1)C12CC3CC(CC(C3)C1)C2` (stereo in doubt) [Example D43, (2R)-N-[1-(adamantan-1-yl)ethyl] pyrrolidine-2-carboxamide] has an EC50 ([1]; 24 h) of 2500 nM and an EC50 ([2]; 24 h) of 4600 nM.

In the case of `O=C(CC12CC3CC(C1)CC(c1ccccc1)(C3)C2)NCC(=O)N1CCC2(CCN(Cc3ccccc3)C2)C1` (centres unmarked) [Example A11], the EC50 [1] is reported as 230 nM and the EC50 [2] is reported as 200 nM.

`O=C(CNC(=O)C12CC3CC(CC1C3)C2)N1CCN(Cc2ccccc2)CC1` [Example A18] was tested, and the EC50 [1] was greater than 10000 nM and the EC50 [2] was greater than 10000 nM.

`O=C(NC1CCN(Cc2ccccc2)CC1)C12CC3CC(CC1C3)C2` [Example A21] was tested, and the EC50 [1] was greater than 10000 nM and the EC50 [2] was greater than 10000 nM.

`CN(CCN(C)C(=O)C12CC3CC(C1)CC(c1ccccc1)(C3)C2)Cc1ccccc1` [Example A22] showed an EC50 [1] of 220 nM and an EC50 [2] of 260 nM.

In the case of `CN(C(=O)C12CC3CC(C1)CC(c1ccccc1)(C3)C2)C1CCN(Cc2ccccc2)CC1` [Example A23], the EC50 [1] is reported as 170 nM and the EC50 [2] is reported as 210 nM.

`CN1CC[C@@H](NC(=O)CC23CC4CC(C2)CC(c2ccccc2)(C4)C3)C1` [Example A40] gave an EC50 [1] of 160 nM and an EC50 [2] of 310 nM.

For `O=C(CC12CC3CC(CC(C3)C1)C2)N1CC2CC1CN2Cc1ccccc1` (centres unmarked) [Example A53], the EC50 [1] was 9000 nM and the EC50 [2] was 9200 nM.

With `COC(=O)c1ccc(COc2ccccc2CN2CC3CC2CN3C(=O)CC23CC4CC(CC(C4)C2)C3)cc1` (centres unmarked) [Example A57] the EC50 [1] was greater than 10000 nM and the EC50 [2] was 2900 nM.

In the case of `COC(=O)c1ccc(COc2ccccc2CN2CCC3(CCN(C(=O)CNC(=O)CC45CC6CC(CC(C6)C4)C5)C3)C2)cc1` (centres unmarked) [Example A59], the EC50 [1] is reported as 1500 nM and the EC50 [2] is reported as 1100 nM.

In the case of `O=C(NC1CCNCC1)C12CC3CC(C1)CC(c1ccc([N+](=O)[O-])cc1)(C3)C2` [Example A76], the EC50 [1] is reported as 1060 nM and the EC50 [2] is reported as 1050 nM.

`CC12CC3CC(C(=O)NCC4(O)CNC4)(C1)CC(c1ccccc1)(C3)C2` (centres unmarked) [Example A101] showed an EC50 [1] greater than 1000 nM and an EC50 [2] greater than 1000 nM.

Work on `COC(=O)[C@H]1CN(C(=O)C23CC4CC(C)(C2)CC(c2ccccc2)(C4)C3)CCN1` (some centres unmarked) [Example A106] yielded an EC50 [1] greater than 1000 nM and an EC50 [2] greater than 1000 nM.

With `CCOC12CC3CC(C1)CC(C(=O)NC1CCNCC1)(C3)C2` [Example A113] the EC50 [1] was greater than 1000 nM and the EC50 [2] was greater than 1000 nM.

For `N[C@H]1CC[C@H](NC(=O)C23CC4CC(C(=O)N5CCCC5)(C2)CC(c2ccccc2)(C4)C3)CC1` (some centres unmarked) [Example A114], the EC50 [1] was greater than 1000 nM and the EC50 [2] was greater than 1000 nM.

Work on `N[C@H]1CC[C@H](NC(=O)C23CC4CC(CO)(C2)CC(c2ccccc2)(C4)C3)CC1` (stereo partly drawn) [Example A116, trans-N-(4-aminocyclohexyl)-3-(hydroxymethyl)-5-phenyladamantane-1-carboxamide] yielded an EC50 [1] greater than 1000 nM and an EC50 [2] greater than 1000 nM.

For `CCN1CCN(C(=O)C23CC4CC(C2)CC(c2ccc(C)cc2)(C4)C3)CC1` [Example B16, 1-ethyl-4-{[3-(4-methylphenyl)adamantan 1-yl]carbonyl} piperazine], the EC50 ([1]; 24 h) was 900 nM and the EC50 ([2]; 24 h) was 1000 nM.

`CC(C)C(NC(=O)C12CC3CC(CC(C3)C1)C2)C(=O)NC1CCN(Cc2ccccc2)CC1` (centres unmarked) [Example B17, 2-(adamantan-1-ylformamido)-N-(1-benzylpiperidin-4-yl)-3-methylbutanamide] gave an EC50 ([1]; 24 h) of less than 5000 nM and an EC50 ([2]; 24 h) greater than 5000 nM.

`Cc1ccc(C23CC4CC(CC(C(=O)N5CCN(CCO)CC5)(C4)C2)C3)cc1` [Example B18, 2-(4-{[3-(4-methylphenyl)adamantan-1-yl]carbonyl}piperazin-1-yl)ethan-1-ol] gave an EC50 ([1]; 24 h) greater than 5000 nM and an EC50 ([2]; 24 h) greater than 5000 nM.

`O=C(NC1CCNCC1)C12CC3CC(CC(C3)C1)C2` [Example B19, N-(piperidin-4-yl)adamantane-1-carboxamide] gave an EC50 ([1]; 24 h) greater than 1000 nM and an EC50 ([2]; 24 h) of 1100 nM.

`NCc1ccc(OCC23CC4CC(C2)CC(c2ccccc2)(C4)C3)cc1` [Example C17, {4-[(3-phenyladamantan-1-yl)methoxy]phenyl}methanamine] gave an EC50 [1] of 1200 nM and an EC50 [2] greater than 1000 nM.

In the case of `COc1ccc(OCC(O)CNCC23CC4CC(CC(C4)C2)C3)c(C(C)(C)C)c1` (centres unmarked) [Example D2, (adamantan-1-ylmethyl) [3-(2-tert-butyl-4-methoxyphenoxy)-2-hydroxypropyl]amine], the EC50 ([1]; 24 h) is reported as 620 nM and the EC50 ([2]; 24 h) is reported as 680 nM.

With `CCC(NCC(O)COc1ccccc1C(C)C)C12CC3CC(CC(C3)C1)C2` (centres unmarked) [Example D3] the EC50 ([2]; 24 h) was 1290 nM.

`COc1cccc(COCC(O)CNCC23CC4CC(CC(C4)C2)C3)c1` (centres unmarked) [Example D6] showed an EC50 ([1]; 24 h) of 1500 nM and an EC50 ([2]; 24 h) of 3450 nM.

Compound `O=C(CN1CCN(CCC23CC4CC(CC(C4)C2)C3)CC1)N1CCCCC1` [Example D7, 2-{4-[2-(adamantan-1-yl)ethyl]piperazin-1-yl}-1-(piperidin-1-yl) ethan-1-one] has an EC50 ([1]; 24 h) of 2600 nM and an EC50 ([2]; 24 h) of 6000 nM.

With `CCC1CCCCN1CC(O)COCCC12CC3CC(CC(C3)C1)C2` (centres unmarked) [Example D9, 1-[2-(adamantan-1-yl)ethoxy]-3-(2-ethylpiperidin-1-yl)propan-2-ol hydrochloride] the EC50 ([1]; 24 h) was 210 nM and the EC50 ([2]; 24 h) was 250 nM.

For `OC(COCCC12CC3CC(CC(C3)C1)C2)CN1CCc2ccccc2C1` (centres unmarked) [Example D14, 1-[2-(adamantan-1-yl)ethoxy]-3-(1,2,3,4-tetrahydroisoquinolin-2-yl) propan-2-ol], the EC50 ([1]; 24 h) was 2670 nM and the EC50 ([2]; 24 h) was 2100 nM.

Compound `OC(COCCC12CC3CC(CC(C3)C1)C2)CN1CCN(c2ccccn2)CC1` (centres unmarked) [Example D15, 1-[2-(adamantan-1-yl)ethoxy]-3-[4-(pyridin-2-yl)piperazin-1-yl] propan-2-ol] has an EC50 ([1]; 24 h) of 2800 nM and an EC50 ([2]; 24 h) of 2900 nM.

For `OCCN(CCO)CC(O)COCCC12CC3CC(CC(C3)C1)C2` (centres unmarked) [Example D17, 2-({3-[2-(adamantan-1yl)ethoxy]-2-hydroxypropyl}(2-hydroxyethyl)amino)ethan-1-ol], the EC50 ([1]; 24 h) was 600 nM and the EC50 ([2]; 24 h) was 8800 nM.

For `OC(COC12CC3CC(CC(C3)C1)C2)CN1CCc2ccccc2C1` (centres unmarked) [Example D18, 1-(adamantan-1-yloxy)-3-(1,2,3,4-tetrahydroisoquinolin-2-yl)propan-2-ol], the EC50 ([2]; 24 h) was greater than 10000 nM.

With `COc1ccccc1N1CCN(CC(O)COC23CC4CC(CC(C4)C2)C3)CC1` (centres unmarked) [Example D19, 1-(adamantan-1-yloxy)-3-[4-(2-methoxyphenyl)piperazin-1-yl] propan-2-ol] the EC50 ([2]; 24 h) was greater than 10000 nM.

With `CC1CCCCN1CC(O)COC12CC3CC(CC(C3)C1)C2` (centres unmarked) [Example D20, 1-(adamantan-1-yloxy)-3-(2-methylpiperidin-1-yl)propan-2-ol] the EC50 ([2]; 24 h) was greater than 10000 nM.

In the case of `CN1CCCN(CC(O)COc2ccc(C34CC5CC(CC(C5)C3)C4)cc2)CC1` (centres unmarked) [Example D30, 1-[4-(adamantan-1-yl)phenoxy]-3-(4-methyl-1,4-diazepan-1-yl)propan-2-ol], the EC50 ([1]; 24 h) is reported as 470 nM and the EC50 ([2]; 24 h) is reported as 190 nM.

For `OC(COc1ccc(C23CC4CC(CC(C4)C2)C3)cc1)CN1CCN(Cc2ccc3c(c2)OCO3)CC1` (centres unmarked) [Example D31, 1-[4-(adamantan-1-yl)phenoxy]-3-[4-(2H-1,3-benzodioxo1-5-ylmethyl)piperazin-1-yl]propan-2-ol], the EC50 ([1]; 24 h) was 1030 nM and the EC50 ([2]; 24 h) was 230 nM.

Work on `CN(C)CCNS(=O)(=O)c1ccc(C23CC4CC(CC(C4)C2)C3)cc1` [Example D33, 4-(adamantan-1-yl)-N-[2-(dimethylamino)ethyl] benzene-1-sulfonamide] yielded an EC50 ([1]; 24 h) of 420 nM and an EC50 ([2]; 24 h) of 440 nM.

Compound `CN1CCN(c2nc(C34CC5CC(CC(C5)C3)C4)cs2)CC1` [Example D35, 1-[4-(adamantan-1-yl)-1,3-thiazol-2-yl]-4-methylpiperazine] has an EC50 ([1]; 24 h) of 620 nM and an EC50 ([2]; 24 h) of 440 nM.
